Assays:
[1] = tested on: B. subtilis; experiment: Radial diffusion assay; assay type: cell-based, Bacillus subtilis (ATCC, 11774); details: 5 µl of 500 µM per 3 mm well, 37 °C, mean ± SD
Source text: (§1) The microbial strains used in this study were Bacillus subtilis (ATCC, 11774), Candida albicans (TIMM, 1768), Enterococcus faecalis (ATCC, 33186), Escherichia coli (ATCC, 11775), Klebsiella pneumoniae (ATCC, 13883), Methicillin-resistant Staphylococcus aureus (ATCC, BAA-41), Pseudomonas aeruginosa (ATCC, 10145), Salmonella enterica (ATCC, 14028), Serratia marcescens (ATCC, 13880), Staphylococcus aureus (ATCC, 25923) and Vibrio parahaemolyticus (ATCC, 17802). All microbial strains were cultivated overnight at 37 °C and 200 rpm, then subcultured and incubated for 3 h under the same incubation conditions to obtain the mid-logarithmic growth phase. The cultivated cells were washed twice with 10 mM Tris–HCl containing 5 mM D-glucose at pH 7.4 and suspended in the same buffer to be used in different assays, as previously described.
(§2) The antimicrobial activity spectra of the selected cryptides were screened against all the mentioned microbial pathogens, except V. parahaemolyticus, by radial diffusion assay as previously described, with slight modifications. […] The plates were then incubated for 18 h, and the antimicrobial activities were measured in the absolute unit (AU), as previously described. […]
(§3) plate. The plates were then incubated for 12 h at 37 °C and antimicrobial activities were measured in the term of absolute unit (A.U). […]

[2] = tested on: S. aureus; experiment: Radial diffusion assay; assay type: cell-based, Staphylococcus aureus (ATCC, 25923); details: 5 µl of 500 µM per 3 mm well, 37 °C, mean ± SD
Source text: as §1, §2, §3

[3] = tested on: E. faecalis; experiment: Radial diffusion assay; assay type: cell-based, Enterococcus faecalis (ATCC, 33186); details: 5 µl of 500 µM per 3 mm well, 37 °C, mean ± SD
Source text: as §1, §2, §3

[4] = tested on: E. coli K-1; experiment: Radial diffusion assay; assay type: cell-based, Escherichia coli (ATCC, 11775); details: 5 µl of 500 µM per 3 mm well, 37 °C, mean ± SD
Source text: as §1, §2, §3

[5] = tested on: K. pneumoniae; experiment: Radial diffusion assay; assay type: cell-based, Klebsiella pneumoniae (ATCC, 13883); details: 5 µl of 500 µM per 3 mm well, 37 °C, mean ± SD
Source text: as §1, §2, §3

[6] = tested on: S. enterica; experiment: Radial diffusion assay; assay type: cell-based, Salmonella enterica (ATCC, 14028); details: 5 µl of 500 µM per 3 mm well, 37 °C, mean ± SD
Source text: as §1, §2, §3

[7] = tested on: MRSA; experiment: Radial diffusion assay; assay type: cell-based, Methicillin-resistant Staphylococcus aureus (ATCC, BAA-41); details: 5 µl of 500 µM per 3 mm well, 37 °C, mean ± SD
Source text: as §1, §2, §3

[8] = tested on: S. marcescens; experiment: Radial diffusion assay; assay type: cell-based, Serratia marcescens (ATCC, 13880); details: 5 µl of 500 µM per 3 mm well, 37 °C, mean ± SD
Source text: as §1, §2, §3

[9] = tested on: S. epidermidis; experiment: Radial diffusion assay; assay type: cell-based; details: 5 µl of 500 µM per 3 mm well, 37 °C, mean ± SD
Source text: The antimicrobial activity spectra of the selected cryptides were screened against all the mentioned microbial pathogens, except V. parahaemolyticus, by radial diffusion assay as previously described, with slight modifications. We aimed to test different categories of pathogens on the WHO global priority due to their growing resistance to the available antibiotics such as P. aeruginosa, E. coli and K. pneumoniae in the critical category and Salmonella ssp. and S. aureus in the high category. Briefly, a total of 4 × 10^6 CFU of each pathogen was inoculated in 10 mL of an underlay agarose gel [0.03% w/v tryptone soy broth (TSB) medium, 1% w/v agarose and 0.02% v/v Tween 20 in 10 mM Tris–HCl] that was then poured into a 100-mm petri dish. After agarose solidification, 3 mm-diameter wells were punched by a sterile cork borer and 5 µl of 500 µM stock solution from each cryptide was added to each well. Melittin and acidified water were used as positive and negative controls, respectively. […] The plates were then incubated for 18 h, and the antimicrobial activities were measured in the absolute unit (AU), as previously described. […]
as §3

[10] = tested on: P. aeruginosa; experiment: Radial diffusion assay; assay type: cell-based, Pseudomonas aeruginosa (ATCC, 10145); details: 5 µl of 500 µM per 3 mm well, 37 °C, mean ± SD
Source text: as §1, §2, §3

[11] = tested on: C. albicans; experiment: Radial diffusion assay; assay type: cell-based, Candida albicans (TIMM, 1768); details: 5 µl of 500 µM per 3 mm well, 37 °C, mean ± SD
Source text: as §1, §2, §3

[12] = tested on: Caco-2; assay type: cell-based, human; details: 24 h, serum-free medium, MTT, 37 °C, 5% CO2; mean ± SD
Protocol: (§4) The used mammalian cell lines in our study were colorectal adenocarcinoma (Caco2, ATCC-HTB-37), colorectal carcinoma (HCT 116, ATCC-CCL-247), lung carcinoma (A549, ATCC- CCL-185), cervical cancer cells (HeLa, ATCC-CCL-2), neuroblastoma (SH-SY5Y, ATCC- CRL-2266), rhabdomyosarcoma (RD, ATCC- CCL-136) and human embryonic kidney cells (HEK 293, ATCC- CRL-1573). All the cells were maintained into Dulbecco’s Modified Eagle’s Medium (DMEM) supplemented with 10% heat-inactivated fetal bovine serum, 2 mM L-Glutamine, 100 U/ml penicillin–streptomycin (Pen/Strep) at 37 °C in 5% CO2 humidified incubator.
(§5) First, the cytotoxic effect of 24 h serum deprivation on all the selected cell lines was evaluated by MTT assay, following standard protocols. Briefly, cells were seeded and maintained at 37 °C and 5% CO2 in 24-well plates until they reached 75–80% confluency (zero time). Following washing twice with 1X PBS, cells were incubated in a serum-free medium for 24 h, under the same incubation conditions. The cell viability percentages were calculated and compared to zero time as 100% viability to nullify any possible effects of serum deprivation. Thence, the cell viability percentage of each cell line in response to 24 h treatment with different concentrations of each cryptide in serum-free medium was calculated. […] All the measured cell viability percentages were normalised against the corresponding negative controls.

[13] = tested on: HCT 116; assay type: cell-based, human; details: 24 h, serum-free medium, MTT, 37 °C, 5% CO2; mean ± SD
Protocol: as §4, §5

[14] = tested on: HeLa; assay type: cell-based, human; details: 24 h, serum-free medium, MTT, 37 °C, 5% CO2; mean ± SD
Protocol: as §4, §5

[15] = assay type: cell-based; details: 24 h, serum-free medium, MTT, 37 °C, 5% CO2; mean ± SD; read-out: IC50 (µM) A459
Protocol: as §4, §5

[16] = tested on: RD; assay type: cell-based; details: 24 h, serum-free medium, MTT, 37 °C, 5% CO2; mean ± SD
Protocol: as §4, §5

[17] = tested on: SH-SY5Y; assay type: cell-based; details: 24 h, serum-free medium, MTT, 37 °C, 5% CO2; mean ± SD
Protocol: as §4, §5

[18] = tested on: HEK-293; experiment: MTT cytotoxicity on normal cells; assay type: cell-based, human; details: 25 µM (highest tested concentration), 24 h, serum-free medium
Protocol: as §4, §5

[19] = tested on: bacterial pathogens; details: salt tolerance; cited from earlier work
Protocol: For example, Pleurocidin is an AMP isolated from a marine flatfish Pseudopleuronectes americanus (Winter flounder) and has been reported to be active against bacterial pathogens at high NaCl concentrations, up to 625 mM[15]. This potential salt-insensi ...

| Molecule | Antimicrobial activity (inhibition zone) B. subtilis [1] [A.U.] | Antimicrobial activity (inhibition zone) S. aureus [2] [A.U.] | Antimicrobial activity (inhibition zone) E. faecalis [3] [A.U.] | Antimicrobial activity (inhibition zone) E. coli K-1 [4] [A.U.] | Antimicrobial activity (inhibition zone) K. pneumoniae [5] [A.U.] | Antimicrobial activity (inhibition zone) S. enterica [6] [A.U.] | Antimicrobial activity (inhibition zone) MRSA [7] [A.U.] | Antimicrobial activity (inhibition zone) S. marcescens [8] [A.U.] | Antimicrobial activity (inhibition zone) S. epidermidis [9] [A.U.] | Antimicrobial activity (inhibition zone) P. aeruginosa [10] [A.U.] | Antifungal activity (inhibition zone) C. albicans [11] [A.U.] | IC50 [12] [µM] | IC50 [13] [µM] | IC50 [14] [µM] | IC50 [15] [µM] | IC50 [16] [µM] | IC50 [17] [µM] | Cell death of HEK-293 [18] [%] | NaCl concentration up to which active against bacterial pathogens [19] |
| --- | --- | --- | --- | --- | --- | --- | --- | --- | --- | --- | --- | --- | --- | --- | --- | --- | --- | --- | --- |
| CC[C@H](C)[C@H](NC(=O)CN)C(=O)NCC(=O)N[C@@H](C)C(=O)N[C@H](C(=O)N[C@@H](CC(C)C)C(=O)N[C@@H](CCCCN)C(=O)N[C@H](C(=O)N[C@@H](CC(C)C)C(=O)N[C@H](C(=O)N[C@H](C(=O)NCC(=O)N[C@@H](CC(C)C)C(=O)N1CCC[C@H]1C(=O)N[C@@H](C)C(=O)N[C@@H](CC(C)C)C(=O)N[C@H](C(=O)N[C@@H](CO)C(=O)N[C@@H](Cc1c[nH]c2ccccc12)C(=O)N[C@H](C(=O)N[C@@H](CCCCN)C(=O)N[C@@H](CCCNC(=N)N)C(=O)N[C@@H](CCCCN)C(=O)N[C@@H](CCCNC(=N)N)C(=O)N[C@@H](CCC(N)=O)C(=O)N[C@@H](CCC(N)=O)C(N)=O)[C@@H](C)CC)[C@@H](C)CC)[C@@H](C)O)[C@@H](C)O)C(C)C)C(C)C [Melittin, reference compound] | 21.8± 3.1 | 41.5 ± 2.5 | 11.8 ± 1.3 | 6.5 ± 0.9 | 11.8 ± 1.3 | 7.8 ± 2 | 11.8 ± 1.3 | 7.7 ± 1 | 10.4 ± 1.2 | 6 ± 0.9 | 14.2 ± 1.4 | 1.2 ± 0.9 | 2.1 ± 0.2 | 0.9 ± 0.1 | 2.3 ± 0.6 | 2.4 ± 0.5 | 1.7 ± 1 | 78.7 |  |
| Pleurocidin (GWGSFFKKAAHVGKHVGKAALTHYL; UniProt P81941 23-47, looked up) [AMP isolated from a marine flatfish Pseudopleuronectes americanus (Winter flounder)] |  |  |  |  |  |  |  |  |  |  |  |  |  |  |  |  |  |  | up to 625 mM |
